Measurements published in patent publication US7820637B2, “Use of 5′-methylthioadenosine (MTA) in the prevention and/or treatment of autoimmune diseases and/or transplant rejection” (Proyecto de Biomedicina Cima, S.L., priority 2005, dated 2010).

Assays:
[1] = tested on: splenocytes (MBP-specific T-lymphocyte response); test: Lymphocyte proliferation assay (MBP-induced, splenocytes of treated rats); type: cell-based, rat; details: splenocytes of Lewis rats immunised with MBP, day 16 after immunisation, treated in vivo with MTA; MBP 10 μg/ml
Protocol: The splenocytes were purified by means of Ficoll Hypaque density centrifugation starting from the rats with EAE and non-immunised rats. The lymphocite proliferation assay was conducted in the same manner as previously described [Villoslada, P., et al., J. Exp Med, 2000. 191 (10):1799-806].
Briefly, the splenocytes were placed in culture at a concentration of 2×10^6/ml in RPMI 1640 medium supplemented with 10% fetal bovine serum and penicillin/streptomycin, in the presence or absence of phytohemagglutinin (PHA, 5 μg/ml), MBP (10 μg/ml), MTA (100 μM) and DMSO. The cultures were incubated for 5 days in 96-well round-base plates (0.2 ml/well) at 37° C. The wells were struck with 0.5 μCi [^3H]TdR for 18 hours. The reading was performed using a liquid scintillation counter. The results were expressed as the mean stimulation index of the triplicate determinations.
In order to determine whether treatment with MTA modified the peripheral immune system's response to the antigen used in the immunisation, the MBP-induced proliferation responses were measured in splenocytes of animals treated with MTA and placebo (in Lewis rats). […] Therefore, it is observed that MTA inhibits the MBP-specific lymphocyte activation, which points to its immunomodulatory effect.

[2] = tested on: acute EAE in Lewis rats immunised with MBP; test: Acute EAE induction and clinical score in Lewis rats immunised with MBP; type: in vivo, rat
[3] = tested on: chronic-recurrent EAE (CR-EAE) in Dark Agouti (DA) rats immunised with MOG; test: Chronic-recurrent EAE (CR-EAE) clinical score and survival in DA rats immunised with rMOG; type: in vivo, rat
[4] = tested on: inflammatory infiltrates in brain and spinal cord of Lewis rats immunised with MBP; test: Histopathology and immunohistochemistry of brain and spinal cord; type: in vivo, rat
Protocol: The two Lewis rat groups were anaesthetised and injected by intracardiac route with 4% paraformaldehyde in 0.1 M phosphate buffer (pH 7.6) on day 16 of the disease. The brains and the cervical, thoracic and lumbar spinal cord segments were extracted and fixated for the entire night at 4° C. After fixation, the tissues were soaked in paraffin for histopathology and immunohistochemistry.
Histological evaluation of the brain and spinal cord sections included in paraffin was conducted. The sections were stained with hematoxylin-eosin (HE) and Luxol fast-blue in order to be able to assess the tissues' inflammation and demyelination. 24-30 sagital sections were examined for each rat. The blind semi-quantitative histological evaluation of inflammation and demyelination was conducted as previously described [Villoslada, P., et al., J. Exp Med, 2000. 191 (10):1799-806].
The immunohistochemical procedures were conducted on […] brain and medulla sections included in paraffin. The endogenous peroxidase activity was deactivated by means of 0.3% H2O2 in methanol for 20 min.
The sections were incubated for 30 min in PBS with 0.5% Tween® 20 and 10% goat or horse serum (Vector Laboratorios) and for 2 hours in PBS with 0.5% Tween® 20 and the primary antibodies in the following dilutions: rabbit antiglial fibrillary acid polyclonal anti-protein antibody (GFAP), 1:1,000 (Dakocytomation); mouse beta-amyloid precursor anti-protein antibody (APP), 1:100 (Zymed Laboratorios); mouse […] (OX-6), 1:200 (Serotec); rat anti-CD8 antibody, 1:250 (Serotec); type II anti-iNOS antibody, 1:250 (Serotec); rat anti-CD68 antibody (ED1), 1:200 (Serotec) and rat anti-CD43 antibody (W3/13), 1:50 (Serotec). Subsequently, the sections were washed with PBS and incubated for 45 min at room temperature with the appropriate biotinylated secondary IgG antibody (1:100 in PBS; Vector Laboratorios), followed by several washes in PBS/Tween® and a 45-min incubation at room temperature with the avidin-biotin peroxidase complex (ABC, Vector Laboratorios).
The immunoreaction specificity was determined by incubating the sections without the primary antibody. The images were obtained using an optic microscope.
The neuropathological evaluation confirmed the observed clinical protection. […] Inflammatory lesions were found in both the white and grey matter of the cervical, thoracic and lumbar spinal cord, and the brain. […] There were significant differences between the placebo animals and those treated with MTA in terms of both the severity and the central nervous system (CNS) regions affected. Treatment with MTA inhibits the development of inflammatory EAE in Lewis rats immunised with MBP.

[5] = tested on: IL-2, IFN-γ, TNF-α, IL-10 and iNOS mRNA; test: Quantitative real-time PCR of cytokine and pro-inflammatory mediator mRNA in splenocytes; type: in vivo, rat; details: splenocytes of Lewis rats treated with MTA; relative to 18S rRNA (FIG. 5)
Protocol: Spleen, liver and blood samples were also obtained from each animal. The spleens and the livers were quickly frozen in liquid nitrogen and kept in fragments at −80° C. in order to be able to conduct the studies with RT-PCR (reverse transcription and polymerase chain reaction). The blood was centrifuged at 800 rpm for 10 minutes in order to obtain the serum, which was kept at −80° C.
The spleen and liver tissue segments were homogenised in RNA lysis buffer with 2% β-mercaptoethanol using a manual homogeniser. The total RNA was extracted using the Rneasy Mini Kit (Quiagen), following the manufacturer's instructions. During RNA purification, the DNA was eliminated by treatment with DNase. The RNA concentration and purity was determined by measuring the absorbance at 260 nm and 280 nm with a spectrophotometer (Eppendorf). Reverse transcription of the total RNA was performed using the High Capacity cDNA Archive Kit (Applied Biosystems). […]
For the quantitative PCR, the TaqMan Universal Master Mix (Applied Biosystems) was used. […]
The IL-2, IFN-γ, TNF-α, IL-10 and iNOS mRNA expression levels were quantified in relation to the rRNA 18S constitutive gene.
It was assessed whether MTA had the capacity to modify the expression of cytokines and other pro-inflammatory mediators. The IL-2, IFN-γ, TNF-α, IL-10 and iNOS gene expression was analysed by means of quantitative real-time PCR (RT-PCR). […]

[6] = MTA 4.3 mg/animal i.p. daily from immunisation
[7] = 100 μM MTA i.p. daily from day 15 after immunisation
[8] = immunohistochemical staining, MTA versus placebo group

Compound: CSCC1OC(n2cnc3c(N)ncnc32)C(O)C1O (stereo not drawn) [MTA, 5′-methylthioadenosine]
- stimulation index (MBP-specific proliferation response) [1]: 1.18±0.4
- EAE Incidence (%) [2, 6]: (28.57%)
- EAE Incidence (rats with EAE / number of rats) [2, 6]: 4/14
- Cumulative EAE Score ([2]; MTA i.p. daily from immunisation): 2 ± 0.07
- Onset of EAE ([2]; MTA i.p. daily from immunisation, treated animals that developed symptoms): 15 ± 1.2 days
- Cumulative EAE Score [3, 7]: 23 ± 20
- Incidence 2nd outbreak [3, 7]: 10/10
- Onset (days) 2nd outbreak [3, 7]: 26 ± 6 days
- Max. EAE Score ([3]; 100 μM MTA i.p. daily from day 15 after immunisation, scale 0-5): 1.8 ± 1.5
- survival rate versus placebo group ([3]; survival curves to score 3.5 and to exitus (FIG. 3)): significantly higher
- number of positive ED1 and W3/13 cells in inflammatory infiltrates [4, 8]: higher in the placebo group
- proportions of positive OX-6 cells in inflammatory infiltrates [4, 8]: same proportions
- stains for APP and iNOS ([4]; immunohistochemical staining, both groups): very low detection levels
- number and size of the inflammatory infiltrates versus placebo ([4]; spinal cord and brain, Lewis rats immunised with MBP (FIG. 6)): lower
- mRNA expression of cytokines (IL-2, IFN-γ, TNF-α, IL-10, iNOS) versus placebo group [5]: lower
